Legend:
[1] = in vivo; format: in vivo; conditions: both sexes, beagle, dog, in vivo, po
Procedure: (§1) Eighteen male and eighteen female beagle dogs were received from Ridglan Farms, Mt. Horeb, Wis. […] Each group consisted of four males and four females. All animals/sex/group were scheduled for the primary necropsy at the end of the 13-week treatment period.
(§2) The animals were observed twice daily for mortality and moribundity. Clinical examinations were performed daily at the time of dosing and approximately 1-2 and approximately 3 hours following dose administration. Detailed physical examinations were performed weekly. Clinical pathology evaluations (hematology, serum chemistry and urinalysis) were performed prior to the initiation of dose administration (study week-1) and prior to the scheduled necropsy (study week 13). Individual body weights were recorded weekly, beginning approximately two weeks prior to test article administration (study week-2). Mean body weights and mean body weight changes were calculated for each corresponding interval. Final body weights (fasted) were recorded prior to the scheduled necropsy. […] Gross lesions were also examined from the 2.0 and 6.0 mg/kg/day groups.

[2] = Toxicokinetic evaluation in rats; conditions: rat, in vivo
Procedure: For toxicokinetic evaluation, all animals were observed twice daily for mortality and moribundity. Blood samples were collected from three animals/sex/group at 0 (pre-dose), 1, 2, 4, 8 and 24 hours after dose administration on study days 0 and 87. All toxicokinetic animals were euthanized and discarded following the final blood collection (study day 88).

[3] = Toxicokinetic evaluation in dogs; format: in vivo; conditions: beagle, dog, po; for AUC(0-t): read-out: AUC0-24 h
Procedure: as §1
as §2, with “necropsy. Blood samples for toxicokinetic evaluation were collected from all dogs on study days 0 and 88 at 0, 1, 2, 4, 8 and 24 hours after dose administration.” for “necropsy.”

[4] = female, Crl:CD(SD)IGS BR (Sprague-Dawley), po, 60 mg/kg/day
[5] = female, Crl:CD(SD)IGS BR, po, 10 mg/kg/day
[6] = female, Crl:CD(SD)IGS BR, po, 25 mg/kg/day
[7] = male, Crl:CD(SD)IGS BR, po, 10 mg/kg/day
[8] = male, Crl:CD(SD)IGS BR, po, 25 mg/kg/day
[9] = male, Crl:CD(SD)IGS BR, po, 60 mg/kg/day
[10] = female, blood, 6 mg/kg/day, female dogs, 6 mg/kg/day oral, Day 0
[11] = female, blood, 6 mg/kg/day, female dogs, 6 mg/kg/day oral, Day 88
[12] = female, blood, 20 mg/kg/day, female dogs, 20 mg/kg/day oral, Day 0
[13] = female, blood, 20 mg/kg/day, female dogs, 20 mg/kg/day oral, Day 88
[14] = female, in vivo, 2 mg/kg/day, female dogs, 2 mg/kg/day oral, Day 0
[15] = female, in vivo, 2 mg/kg/day, female dogs, 2 mg/kg/day oral, Day 88
[16] = male, blood, 2 mg/kg/day, male dogs, 2 mg/kg/day oral, Day 0
[17] = male, blood, 2 mg/kg/day, male dogs, 2 mg/kg/day oral, Day 88
[18] = male, in vivo, 6 mg/kg/day, male dogs, 6 mg/kg/day oral, Day 0
[19] = male, in vivo, 6 mg/kg/day, male dogs, 6 mg/kg/day oral, Day 88
[20] = male, in vivo, 20 mg/kg/day, male dogs, 20 mg/kg/day oral, Day 0
[21] = male, in vivo, 20 mg/kg/day, male dogs, 20 mg/kg/day oral, Day 88

Clc1ccc([C@]23CNCC2C3)cc1Cl (single isomer, unassigned; (+)) [(+)-1-(3,4-dichlorophenyl)-3-azabicyclo[3.1.0]hexane]
NOAEL at 13 weeks [1]: 6 mg/kg/day
AUC(0-t) ([2]; Crl:CD(SD)IGS BR (Sprague-Dawley), male rats, 10 mg/kg/day oral, Day 87, read-out: AUC0-24 h): 8130 ng·h/mL
AUC(0-t) ([2]; Crl:CD(SD)IGS BR, female rats, 10 mg/kg/day oral, Day 87, read-out: AUC0-24 h): 14400 ng·h/mL
AUC0-24 h [2, 4]: 88137 ng·h/mL
AUC(0-t) ([2]; female, Crl:CD(SD)IGS BR (Sprague-Dawley), po, 60 mg/kg/day, AUC0-24 h): 54400 ng·h/mL
Cmax [2, 4]: 6600 ng/mL
Tmax [2, 4]: 2 h
AUC(0-t) ([2]; female, Crl:CD(SD)IGS BR, po, 10 mg/kg/day, AUC0-24 h): 10900 ng·h/mL
Cmax [2, 5]: 1390 ng/mL
Tmax [2, 5]: 1 h
AUC0-24 h [2, 6]: 30205 ng·h/mL
AUC(0-t) ([2]; female, Crl:CD(SD)IGS BR, po, 25 mg/kg/day, AUC0-24 h): 31000 ng·h/mL
Cmax [2, 6]: 2810 ng/mL
Tmax [2, 6]: 2 h
AUC(0-t) ([2]; male, Crl:CD(SD)IGS BR (Sprague-Dawley), po, 10 mg/kg/day, AUC0-24 h): 5940 ng·h/mL
Cmax [2, 7]: 863 ng/mL
Tmax [2, 7]: 2 h
AUC0-24 h [2, 8]: 21975 ng·h/mL
AUC(0-t) ([2]; male, Crl:CD(SD)IGS BR, po, 25 mg/kg/day, AUC0-24 h): 17400 ng·h/mL
Cmax [2, 8]: 2360 ng/mL
Tmax [2, 8]: 2 h
AUC0-24 h [2, 9]: 60093 ng·h/mL
AUC(0-t) ([2]; male, Crl:CD(SD)IGS BR, po, 60 mg/kg/day, AUC0-24 h): 36300 ng·h/mL
Cmax [2, 9]: 3680 ng/mL
Tmax [2, 9]: 1 h
Tmax ([3]; female, blood, 2 mg/kg/day, female dogs, 2 mg/kg/day oral, Day 0): 1 h
Tmax ([3]; female, blood, 2 mg/kg/day, female dogs, 2 mg/kg/day oral, Day 88): 1 h
Cmax [3, 10]: 5120 ng/mL
Tmax [3, 10]: 1 h
AUC(0-t) [3, 10]: 13600 ng·h/mL
Cmax [3, 11]: 4850 ng/mL
Tmax [3, 11]: 1 h
Cmax [3, 12]: 9280 ng/mL
Tmax [3, 12]: 2 h
AUC(0-t) [3, 12]: 63600 ng·h/mL
Cmax [3, 13]: 8430 ng/mL
Tmax [3, 13]: 1 h
AUC(0-t) [3, 13]: 29600 ng·h/mL
Cmax [3, 14]: 635 ng/mL
AUC(0-t) [3, 14]: 1470 ng·h/mL
Cmax [3, 15]: 663 ng/mL
AUC(0-t) [3, 15]: 2150 ng·h/mL
AUC(0-t) ([3]; female, in vivo, 6 mg/kg/day, female dogs, 6 mg/kg/day oral, Day 88): 15900 ng·h/mL
Cmax [3, 16]: 507 ng/mL
Tmax [3, 16]: 1 h
AUC(0-t) [3, 16]: 1570 ng·h/mL
Cmax [3, 17]: 753 ng/mL
Tmax [3, 17]: 1 h
AUC(0-t) [3, 17]: 2280 ng·h/mL
Cmax [3, 18]: 4640 ng/mL
Tmax [3, 18]: 1 h
AUC(0-t) [3, 18]: 12800 ng·h/mL
Cmax [3, 19]: 4140 ng/mL
Tmax [3, 19]: 1 h
AUC(0-t) [3, 19]: 13100 ng·h/mL
Cmax [3, 20]: 11400 ng/mL
Tmax [3, 20]: 1 h
AUC(0-t) [3, 20]: 47800 ng·h/mL
Cmax [3, 21]: 7230 ng/mL
Tmax [3, 21]: 1 h
AUC(0-t) [3, 21]: 44000 ng·h/mL
